This note sets out measurements from patent publication US9567345B2, “Pharmaceutically active pyrazolo-triazine derivatives” (LEAD DISCOVERY CENTER GMBH, priority 2012, dated 2017).

Holding throughout (assay type): biochemical
The target in assay [1] is T1, CDK2/CycA (Homo sapiens, UniProt P24941).
T1 construct: purchased Proqinase
Briefly: CDK2 Enzymatic Activity Assay (Lance Kinase Activity Assay, FRET). The conditions noted are these: for IC50: Table 5B, class symbols per IC50 [nM] ranges of b581, read-out: CDK2: Selectivity of CDK7 inhibition over CDK2 inhibition. The procedure:
(§1) This protocol describes how the Lance Kinase Activity Assay was performed to determine IC50 values of compounds of general formula (I) against CDK/Cyclin complexes. The principle behind this enzymatic assay is based upon the phosphorylation of the Ulight-Peptide Substrat. It is detected by using a specific EU-labeled anti-phospho peptide antibody.
(§2) Binding of an inhibitor to the kinase prevents phosphorylation of the Ulight-MBP Substrat, resulting in a loss of FRET.
CDK2 Enzymatic Activity Assay
(§3) The compounds of general formula (I) exemplary summarized in Table 1 were diluted from a 10 mM DMSO stock solution 1:10 in a total volume of 15 μl DMSO. This compound predilution was then serial diluted 1:3 over 8 steps in DMSO and briefly spun down. Each compound solution was now diluted 1:20 in Enzymatic Buffer (HEPES: 50 mM, pH: 7.5; MgCl2: 10 mM; EGTA: 1 mM; DTT: 2 mM; Tween-20: 0.01%), mixed thoroughly and spun down.
(§4) For positive controls, 2 μl of DMSO working solution were mixed with 6 μl CDK2/CycA/substrate working solution and 2 μl ATP working solution. Positive and negative controls were calculated from at least 8 different wells. The 384 well plates were mixed in a Teleshaker plate mixer (Beckman Coulter, Brea, Calif., USA) at 2000 rpm for 40 sec, and incubated for 1 h at room temperature before addition of 10 μl LANCE Detection Buffer (EDTA: […]; Eu-Anti-P-MBP: 4 nM) per well. Plates were mixed in a Teleshaker plate mixer (Beckman Coulter, Brea, Calif., USA) at 2000 rpm for 40 sec, followed by incubation with Detection Buffer for 1 h, and reading. […] IC50 values were determined from the sigmoidal dose response curves with the software Quattro Workflow (Quattro GmbH, Munich, Germany).

In assay [2] the target is CDK7/CycH/Mat1 (Homo sapiens, UniProt P50613). Briefly: CDK7 Enzymatic Activity Assay (Lance Kinase Activity Assay, FRET). The note with it: CDK7/CycH/Mat1, 25 μM ATP final; class ranges; read-out: CDK7: IC50 [nM] for CDK7 inhibition. The procedure: as §1, §2
CDK7 Enzymatic Activity Assay
as §3
as §4, with “CDK7/CycH/Mat1/substrate” for “CDK2/CycA/substrate”, “(1×; EDTA:” for “(EDTA:”

Assay [3] addresses CDK9/Cyclin T1 (Homo sapiens, UniProt P50750). Put plainly: CDK9 Enzymatic Activity Assay (Lance Kinase Activity Assay, FRET). The conditions noted are these: for IC50: Table 5B, class symbols per IC50 [nM] ranges of b581, read-out: CDK9: Selectivity of CDK7 inhibition over CDK9 inhibition. The procedure:
as §1, §2
CDK9 Enzymatic Activity Assay
as §3
as §4, with “CDK9/cyclin T1/substrate” for “CDK2/CycA/substrate”, “(1×; EDTA:” for “(EDTA:”

Bounds are passed on as bounds.

Chain of CDK9/Cyclin T1 (P50750 whole entry): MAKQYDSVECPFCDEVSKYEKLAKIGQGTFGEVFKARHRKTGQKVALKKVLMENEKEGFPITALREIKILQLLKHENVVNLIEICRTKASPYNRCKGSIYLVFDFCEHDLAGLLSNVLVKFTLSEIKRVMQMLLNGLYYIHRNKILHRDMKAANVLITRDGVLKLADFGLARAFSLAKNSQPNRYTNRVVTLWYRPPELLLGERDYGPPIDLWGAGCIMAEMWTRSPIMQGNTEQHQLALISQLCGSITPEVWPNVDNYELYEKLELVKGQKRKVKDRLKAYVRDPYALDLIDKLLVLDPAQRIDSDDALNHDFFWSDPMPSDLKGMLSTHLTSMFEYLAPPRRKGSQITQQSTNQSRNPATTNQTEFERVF
Chain of CDK9/Cyclin T1 (O60563 whole entry partner): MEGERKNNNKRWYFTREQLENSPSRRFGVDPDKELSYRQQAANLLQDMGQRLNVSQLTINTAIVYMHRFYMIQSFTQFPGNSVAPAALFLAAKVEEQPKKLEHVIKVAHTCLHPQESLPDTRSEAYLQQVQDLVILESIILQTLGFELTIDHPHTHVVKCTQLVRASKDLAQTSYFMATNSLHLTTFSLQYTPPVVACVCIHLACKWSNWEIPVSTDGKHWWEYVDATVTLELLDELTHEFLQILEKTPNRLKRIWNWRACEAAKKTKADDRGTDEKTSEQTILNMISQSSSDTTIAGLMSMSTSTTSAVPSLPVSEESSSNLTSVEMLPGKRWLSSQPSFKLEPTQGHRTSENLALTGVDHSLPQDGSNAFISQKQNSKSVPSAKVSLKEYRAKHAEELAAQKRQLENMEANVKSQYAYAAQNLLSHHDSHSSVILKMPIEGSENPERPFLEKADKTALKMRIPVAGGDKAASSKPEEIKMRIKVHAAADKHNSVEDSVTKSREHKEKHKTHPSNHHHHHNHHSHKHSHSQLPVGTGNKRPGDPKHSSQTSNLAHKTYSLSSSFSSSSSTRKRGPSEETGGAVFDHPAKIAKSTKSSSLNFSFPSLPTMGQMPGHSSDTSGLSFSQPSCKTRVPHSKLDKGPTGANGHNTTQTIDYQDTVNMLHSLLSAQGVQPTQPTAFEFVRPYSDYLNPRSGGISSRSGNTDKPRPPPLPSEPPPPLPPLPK
Chain of CDK7/CycH/Mat1 (P50613 whole entry): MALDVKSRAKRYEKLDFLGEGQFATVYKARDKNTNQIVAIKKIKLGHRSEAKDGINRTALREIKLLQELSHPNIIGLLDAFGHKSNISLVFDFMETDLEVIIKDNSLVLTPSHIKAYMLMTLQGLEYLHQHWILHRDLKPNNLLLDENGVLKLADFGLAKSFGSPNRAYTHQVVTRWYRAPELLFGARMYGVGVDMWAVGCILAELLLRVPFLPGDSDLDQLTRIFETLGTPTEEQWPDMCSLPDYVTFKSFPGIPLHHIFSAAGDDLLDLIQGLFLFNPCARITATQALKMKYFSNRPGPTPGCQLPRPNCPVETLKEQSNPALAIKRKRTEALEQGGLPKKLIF

For the compound `CC(C)c1cnn2c(NCc3ccccc3C3CC3)nc(O[C@@H]3CCCNC3)nc12` (stereo in doubt) [(VII-143), N-(2-cyclopropylbenzyl)-8-isopropyl-2-(piperidin-3-yloxy)pyrazolo[1,5-a][1,3,5]triazin-4-amine], the IC50 in assay [1] was 500 to 2500 nM; in assay [2] it was 10 to 25 nM; in assay [3], 500 to 2500 nM.

As to `CC(C)c1cnn2c(NCc3ccccc3-n3cccn3)nc(OC3CCNCC3)nc12` [(VII-01), N-(2-(1H-pyrazol-1-yl)benzyl)-8-isopropyl-2-(piperidin-4-yloxy) pyrazolo[1,5-a][1,3,5]triazin-4-amine], the IC50 in assay [1] was 50 to 500 nM; in assay [2], below 5 nM; in assay [3], above 2500 nM.

In the case of `CC(C)c1cnn2c(NCc3ccccc3-n3cccn3)nc(O[C@@H]3CCNC3)nc12` [(VII-02), (R)-N-(2-(1H-pyrazol-1-yl)benzyl)-8-isopropyl-2-(pyrrolidin-3-yloxy)pyrazolo[1,5-a][1,3,5]triazin-4-amine], the IC50 in assay [1] is below 50 nM; in assay [2], below 5 nM; in assay [3], 500 to 2500 nM.

With `CC(C)c1cnn2c(NCc3ccccc3-n3cccn3)nc(O[C@@H]3CCCNC3)nc12` [(VII-03), (R)-N-(2-(1H-pyrazol-1-yl)benzyl)-8-isopropyl-2-(piperidin-3-yloxy)pyrazolo[1,5-a][1,3,5]triazin-4-amine], the IC50 is below 50 nM in assay [1], below 5 nM in assay [2] and 50 to 500 nM in assay [3].

With `Cc1nccn1-c1ccccc1CNc1nc(O[C@@H]2CCCNC2)nc2c(C(C)C)cnn12` [(VII-23), (R)-8-isopropyl-N-(2-(2-methyl-1H-imidazol-1-yl)benzyl)-2-(piperidin-3-yloxy)pyrazolo[1,5-a][1,3,5]triazin-4-amine], the IC50 in assay [1] was 500 to 2500 nM; in assay [2], below 5 nM.

Take `CC(C)c1cnn2c(NCc3ccccc3-n3cccn3)nc(N3CCCC4(CCCNC4)C3)nc12` (stereo not shown) [(VIII-14), N-(2-(1H-pyrazol-1-yl)benzyl)-8-isopropyl-2-(2,8-diazaspiro[5.5]undecan-2-yl)pyrazolo[1,5-a][1,3,5]triazin-4-amine]: the IC50 in assay [2] was 10 to 25 nM; in assay [3], above 2500 nM.

Take `CC(C)c1cnn2c(NCc3ccccc3-n3cccn3)nc(N3CCCC4(CCCCN4)C3)nc12` (stereo not shown) [(VIII-15), N-(2-(1H-pyrazol-1-yl)benzyl)-8-isopropyl-2-(1,8-diazaspiro[5.5]undecan-8-yl)pyrazolo[1,5-a][1,3,5]triazin-4-amine]: the IC50 in assay [2] is 10 to 25 nM; in assay [3], above 2500 nM.

Take `CC(C)c1cnn2c(NCc3ccccc3-n3cccn3)nc(N3CCC4(CC3)CNC4)nc12` [(VIII-16), N-(2-(1H-pyrazol-1-yl)benzyl)-8-isopropyl-2-(2,7-diazaspiro[3.5]nonan-7-yl)pyrazolo[1,5-a][1,3,5]triazin-4-amine]: the IC50 in assay [2] is below 5 nM; in assay [3] it was above 2500 nM.

With `CC(C)c1cnn2c(NCc3ccccc3-c3nnnn3C)nc(N3CCC4(CCCN4)CC3)nc12` [(VIII-18), 8-isopropyl-N-(2-(1-methyl-1H-tetrazol-5-yl)benzyl)-2-(1,8-diazaspiro[4.5]decan-8-yl)pyrazolo[1,5-a][1,3,5]triazin-4-amine], the IC50 in assay [2] is below 5 nM; in assay [3], above 2500 nM.

`CC(C)c1cnn2c(NCc3ccccc3-c3nnn(C)n3)nc(N3CCC4(CCCN4)CC3)nc12` [(VIII-19), 8-isopropyl-N-(2-(2-methyl-2H-tetrazol-5-yl)benzyl)-2-(1,8-diazaspiro[4.5]decan-8-yl)pyrazolo[1,5-a][1,3,5]triazin-4-amine]: the IC50 in assay [2] was below 5 nM; in assay [3] it was above 2500 nM.

As to `CC(C)c1cnn2c(NCc3ccccc3-n3cccn3)nc(N3CCC4(CCN4)CC3)nc12` [(VIII-20), N-(2-(1H-pyrazol-1-yl)benzyl)-8-isopropyl-2-(1,7-diazaspiro[3.5]nonan-7-yl)pyrazolo[1,5-a][1,3,5]triazin-4-amine], the IC50 is below 5 nM in assay [2] and above 2500 nM in assay [3].

For the compound `CC(C)c1cnn2c(NCc3ccccc3-n3cccn3)nc(N3CCCC34CCNCC4)nc12` [(VIII-22), N-(2-(1H-pyrazol-1-yl)benzyl)-8-isopropyl-2-(1,8-diazaspiro[4.5]decan-1-yl)pyrazolo[1,5-a][1,3,5]triazin-4-amine], the IC50 in assay [2] was below 5 nM; in assay [3] it was above 2500 nM.

In the case of `CC(C)c1cnn2c(NCc3ccccc3-n3cccn3)nc(N3CCC4(CCNCC4)CC3)nc12` [(VIII-26), N-(2-(1H-pyrazol-1-yl)benzyl)-8-isopropyl-2-(3,9-diazaspiro[5.5]undecan-3-yl)pyrazolo[1,5-a][1,3,5]triazin-4-amine], the IC50 was 5 to 10 nM in assay [2] and above 2500 nM in assay [3].

On to `CC(C)c1cnn2c(NCc3ccccc3-n3cccn3)nc(N3CCC4(CCCNC4)C3)nc12` (stereo not shown) [(VIII-27), N-(2-(1H-pyrazol-1-yl)benzyl)-8-isopropyl-2-(2,7-diazaspiro[4.5]decan-2-yl)pyrazolo[1,5-a][1,3,5]triazin-4-amine], for which the IC50 in assay [2] was 5 to 10 nM; in assay [3], above 2500 nM.

Take `CC(C)c1cnn2c(NCc3ccccc3-n3cccn3)nc(N3CCC34CCNC4)nc12` (stereo not shown) [(VIII-28), N-(2-(1H-pyrazol-1-yl)benzyl)-8-isopropyl-2-(1,6-diazaspiro[3.4]octan-1-yl)pyrazolo[1,5-a][1,3,5]triazin-4-amine]: the IC50 is below 5 nM in assay [2] and above 2500 nM in assay [3].

Regarding `COc1ccccc1[C@H](C)Nc1nc(N[C@@H]2CCCNC2)nc2c(C(C)C)cnn12` [(VIII-31), 8-isopropyl-N4-((S)-1-(2-methoxyphenyl)ethyl)-N2-((R)-piperidin-3-yl)pyrazolo[1,5-a][1,3,5]triazine-2,4-diamine], the IC50 in assay [2] was 5 to 10 nM; in assay [3], above 2500 nM.

For `CC(C)c1cnn2c(NCc3ccccc3-n3cccn3)nc(N3CCC34CCNCC4)nc12` [(VIII-34), N-(2-(1H-pyrazol-1-yl)benzyl)-8-isopropyl-2-(1,7-diazaspiro[3.5]nonan-1-yl)pyrazolo[1,5-a][1,3,5]triazin-4-amine], the IC50 was below 5 nM in assay [2] and above 2500 nM in assay [3].

Regarding `CC(C)c1cnn2c(NCc3ccccc3S(=O)(=O)N(C)C)nc(N3CCC4(CCCN4)CC3)nc12` [(VIII-35), 2-(((8-isopropyl-2-(1,8-diazaspiro[4.5]decan-8-yl)pyrazolo[1,5-a][1,3,5]triazin-4-yl)amino)methyl)-N,N-dimethylbenzenesulfonamide], the IC50 in assay [2] was below 5 nM; in assay [3], above 2500 nM.

Take `CN1CC[C@H](c2c(O)cc(O)c3c(=O)cc(-c4ccccc4Cl)oc23)[C@H](O)C1` [Flavopiridol, reference compound]: in assay [1] (selectivity CDK2 vs CDK7, enzymatic IC50 values), the “multiplicity of the CDK2 activity in terms of the CDK7 activity” value is on record as “even lower than the CDK 7 activity”. In addition, the “multiplicity of the CDK9 activity in terms of the CDK7 activity” value in assay [3] (selectivity CDK9 vs CDK7, enzymatic IC50 values) is “even lower than the CDK 7 activity”.

For the compound `CC(C)c1cnn2c(NCc3ccccc3C(F)(F)F)nc(OC3CCN(C)CC3)nc12` [VII-058, 8-isopropyl-2-((1-methylpiperidin-4-yl)oxy)-N-(2-(trifluoromethyl)benzyl)pyrazolo[1,5-a][1,3,5]triazin-4-amine], the IC50 in assay [1] and in assay [3] was above 2500 nM throughout.

Consider `CC(C)c1cnn2c(NCc3ccccc3-n3cccn3)nc(OC3CNC3)nc12` [VII-141, N-(2-(1H-pyrazol-1-yl)benzyl)-2-(azetidin-3-yloxy)-8-isopropylpyrazolo[1,5-a][1,3,5]triazin-4-amine], for which the IC50 in assay [1] was 500 to 2500 nM; in assay [3], above 2500 nM.
